The values that follow come from US6391840B1, “Multiple component bleaching compositions” (Unilever Home & Personal Care USA, division of Conopco, Inc., priority 1999, dated 2002).

Series [1] in a line: Stability tests of imine quat in the presence of hydrogen peroxide at various pH (1H NMR integral ratio; permanganate titration). The format is physicochemical. As for the experimental part:
The stability of N-methyl-3,4 dihydroisoquinolinium tosylate in the presence of hydrogen peroxide was tested at various pH values. To this end samples were prepared containing 6.0% w/w hydrogen peroxide, 2.0% w/w of the imine quat and 0.01% w/w Dequest™ 2047 (ethylenediamine-tetra[methylene-phosphonic acid] sodium salt, a sequestrant marketed by Monsanto). This is equivalent to a partial composition which together with a second partial composition of the same volume would lead to a final composition with 3% hydrogen peroxide and 1% imine quat.
The pH of the samples was adjusted using 1.0M hydrochloric acid or 2.0M sodium hydroxide as required. During the test the pH of the samples was re-adjusted as indicated using 2.0M sodium hydroxide.
The hydrogen peroxide content was determined by titration against 0.02 M potassium permanganate. […] Complete reaction of 1 equivalent of hydrogen peroxide with 1 equivalent of imine quat would result in a decrease in hydrogen peroxide concentration of 0.2% w/w.
Imine quat stability was monitored using ^1H NMR spectroscopy, by comparing the ratio of the integrals of the iminium proton which appears at 8.85 ppm relative to TMS, with those for the aromatic protons on the inert tosylate counter-ion, which are observed at 7.65 ppm. Loss of imine quat (e.g. through reaction with hydrogen peroxide) is observed as a decrease in the iminium:tosylate integral ratio, and % of imine quat remaining is calculated as integral ratio after storage÷initial integral ratio.

Series [2] deals with black mould (Cladosporium cladosporoides), autoclaved mould paste. In words: Bleaching of autoclaved black mould paste on porous ceramic tiles, expert panel score 0-6. The procedure: Hydrogen peroxide solutions with and without imine quat (N-methyl-3,4-dihydroisoquinolinium tosylate) and at various pH values were tested on their ability to bleach black mould in comparison with sodium hypochlorite, which is the standard product used to clean black mould stains. The hydrogen peroxide solutions were all freshly prepared just before testing so as to mimic compositions obtained by mixing appropriate partial compositions on dispensing. In order to obtain reproducible results an autoclaved mould paste was used for the testing.
Cultures of hyphal Cladosporium cladosporoides were prepared on agar jelly. Warm water was used to dissolve the jelly and separate it from the mould hyphae, which were then autoclaved. […]
Small circular pieces of single ply tissue paper were cut to a convenient size and placed on the surface of the ‘mould tile’ test pieces, such that the edges of the test pieces remain uncovered. A fixed quantity of the test solution was allowed to drop onto the surface of the tissue and allowed to soak into the tile. […]
Test pieces were assessed for the level of mould bleaching by an expert panel, using a integer scale running from 0 (no decolorisation) to 6 (complete bleaching). Panel test data for each system was collated and analysed statistically to provide mean scores for each test system. […]

Series [3] is described as follows: Bleaching of tea stained cotton cloth (reflectance). As to conditions: pH 10.0 or higher, vs 1% sodium hypochlorite pH 12. The text has this: Tea stained cotton (BC-1) cloth is routinely used in the assessment of laundry bleaches. Here the method was adapted as an easy and readily reproducible indicator of the activity of the composition against a common hydrophilic household soil in comparison with a standard hypochlorite bleach.
Lengths of pre-stained BC-1 cotton cloth was cut into square swatches (2 cm×2 cm). For each composition four replicate cloths were placed in the bottom of a clean glass beaker and covered with the cleaning composition at room temperature. After the required contact time (generally 2 or 5 minutes) had elapsed, the cloths were removed from the cleaning solution using tweezers and immediately immersed in distilled water. The cloths were stirred in the water, and the washing procedure repeated twice more using fresh water each time. Washed cloths were then pressed between two filters to remove excess water and placed on fresh filter papers, in the dark, to dry.
Reflectance measurements were carried out on a Spectraflash 400 instrument. ΔR measurements were calculated using ‘40ptspec’ software, using a portion of untreated cloth from the same BC-1 cloth batch as a standard. Results obtained from each of the four replicate test cloths were then statistically analysed to obtain mean ΔR values for each bleach system.

Series [4] is described as follows: Stability tests of imine quat in the presence of hydrogen peroxide at various pH (1H NMR integral ratio; permanganate titration). The settings on record: pH 8, without hydrogen peroxide, 2% imine quat, three days after preparation. In kind it is physicochemical.
The mark [5] stands for this setting: target pH 5.5, 0 days storage, sample 6.0% H2O2 + 2.0% imine quat.
Setting [6] is: target pH 5.5, 148 days storage.
Setting [7] is: target pH 6.0, 148 days storage.
[8] abbreviates: target pH 6.5, 148 days storage.
[9] abbreviates: target pH 7.0, 148 days storage.
[10] abbreviates: target pH 7.5, 148 days storage.

For the compound `C[N+]1=Cc2ccccc2CC1.Cc1ccc(S(=O)(=O)[O-])cc1` [Imine Quat, N-methyl-3,4-dihydroisoquinolinium tosylate], the “% of the original amount of imine quat still detectable” value in series [1] (pH 8, in the presence of 6% hydrogen peroxide, 4 hours after preparation) came out at 5%. In series [1] (pH 8, in the presence of 6% hydrogen peroxide, one day after preparation), the imine quat detectable entry is given as “no imine quat was detectable”. The “% Imine Quat remaining” value amounted to 100% in series [1] (setting [5]); 93% in series [1] (setting [6]); 100% in series [1] (target pH 6.0, 0 days storage); 83% in series [1] (setting [7]); 100% in series [1] (target pH 6.5, 0 days storage); 67% in series [1] (setting [8]). The “% Imine Quat remaining” value worked out at 100% in series [1] (target pH 7.0, 0 days storage); 43% in series [1] (setting [9]); 100% in series [1] (target pH 7.5, 0 days storage); 33% in series [1] (setting [10]). Further, the “effect of adding Imine Quat on mould bleaching over hydrogen peroxide” value in series [2] (pH 10.5 and 11.0) was “significant improvement in performance”. In series [3], the “effect of adding Imine Quat on tea stain bleaching” value is given as “boosts the performance of hydrogen peroxide to values very close to those observed using hypochlorite”. In addition, the “% of the original amount of imine quat remaining” value in series [4] turned out to be 5%.

As for `OO` [hydrogen peroxide, reference compound], the “% hydrogen peroxide” value in series [1] (setting [5]) was 6.00%; in series [1] (setting [6]), 5.99%; in series [1] (target pH 6.0, 0 days storage), 6.00%; in series [1] (setting [7]) it was 5.95%; in series [1] (target pH 6.5, 0 days storage), 6.00%; in series [1] (setting [8]), 5.89%. Besides, the “% hydrogen peroxide” value in series [1] (target pH 7.0, 0 days storage) is 6.00%; in series [1] (setting [9]), 5.84%; in series [1] (target pH 7.5, 0 days storage), 6.00%; in series [1] (setting [10]) it was 5.69%. Moreover, the “mould bleaching performance” value in series [2] (pH 5.5) is “ineffective”.
